This passage reports DC50 results from patent US20240101540A1, “TARGETED PROTEIN DEGRADATION OF PARP14 FOR USE IN THERAPY” (Ribon Therapeutics, Inc., priority 2022, published 2024).

Each structure is given as a SMILES string. Where a name gives a salt, the structure may show the parent alone.

T1 sequence (Q460N5 whole entry): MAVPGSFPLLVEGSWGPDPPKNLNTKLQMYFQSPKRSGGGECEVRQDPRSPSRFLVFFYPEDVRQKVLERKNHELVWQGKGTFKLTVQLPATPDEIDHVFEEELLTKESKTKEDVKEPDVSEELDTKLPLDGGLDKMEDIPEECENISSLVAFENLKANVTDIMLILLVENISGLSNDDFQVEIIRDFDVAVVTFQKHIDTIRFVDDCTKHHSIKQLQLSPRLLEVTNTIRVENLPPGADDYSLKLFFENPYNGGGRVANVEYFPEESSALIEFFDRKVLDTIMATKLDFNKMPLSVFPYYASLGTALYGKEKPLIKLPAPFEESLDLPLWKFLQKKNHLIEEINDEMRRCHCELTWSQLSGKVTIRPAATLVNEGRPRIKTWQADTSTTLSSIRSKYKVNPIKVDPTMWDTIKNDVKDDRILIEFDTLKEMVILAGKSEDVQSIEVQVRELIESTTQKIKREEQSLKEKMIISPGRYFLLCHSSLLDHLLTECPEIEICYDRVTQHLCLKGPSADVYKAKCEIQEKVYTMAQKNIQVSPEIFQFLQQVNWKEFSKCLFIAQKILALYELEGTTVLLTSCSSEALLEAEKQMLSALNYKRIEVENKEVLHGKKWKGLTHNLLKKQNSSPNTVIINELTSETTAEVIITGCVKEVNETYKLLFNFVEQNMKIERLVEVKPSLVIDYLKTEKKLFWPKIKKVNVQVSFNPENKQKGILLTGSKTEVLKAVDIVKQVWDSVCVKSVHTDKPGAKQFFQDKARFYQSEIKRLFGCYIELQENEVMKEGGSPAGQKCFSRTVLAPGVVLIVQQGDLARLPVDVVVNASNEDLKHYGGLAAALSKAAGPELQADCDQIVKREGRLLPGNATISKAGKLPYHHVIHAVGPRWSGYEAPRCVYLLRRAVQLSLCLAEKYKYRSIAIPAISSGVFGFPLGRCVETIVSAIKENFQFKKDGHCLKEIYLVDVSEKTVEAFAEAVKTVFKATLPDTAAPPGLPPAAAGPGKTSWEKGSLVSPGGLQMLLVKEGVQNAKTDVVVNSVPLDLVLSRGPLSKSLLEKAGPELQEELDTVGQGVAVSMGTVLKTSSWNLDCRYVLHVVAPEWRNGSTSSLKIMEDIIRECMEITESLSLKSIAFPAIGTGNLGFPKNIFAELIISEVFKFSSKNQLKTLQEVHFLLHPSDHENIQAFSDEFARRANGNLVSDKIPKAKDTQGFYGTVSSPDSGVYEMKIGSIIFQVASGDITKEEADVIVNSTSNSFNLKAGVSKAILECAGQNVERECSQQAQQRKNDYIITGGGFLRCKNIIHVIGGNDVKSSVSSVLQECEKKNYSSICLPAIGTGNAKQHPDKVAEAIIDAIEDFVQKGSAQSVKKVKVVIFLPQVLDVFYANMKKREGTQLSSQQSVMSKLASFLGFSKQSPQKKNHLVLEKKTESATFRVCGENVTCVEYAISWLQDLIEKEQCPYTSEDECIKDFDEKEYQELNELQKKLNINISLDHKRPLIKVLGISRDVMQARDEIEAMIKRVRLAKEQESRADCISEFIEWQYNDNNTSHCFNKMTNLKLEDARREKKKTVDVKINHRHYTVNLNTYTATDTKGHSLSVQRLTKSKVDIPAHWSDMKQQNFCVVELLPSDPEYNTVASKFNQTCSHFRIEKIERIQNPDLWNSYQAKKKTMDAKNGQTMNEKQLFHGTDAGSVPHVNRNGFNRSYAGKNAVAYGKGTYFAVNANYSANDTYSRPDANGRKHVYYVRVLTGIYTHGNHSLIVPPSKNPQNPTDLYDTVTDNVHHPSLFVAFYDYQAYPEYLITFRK

The assay concerns the target T1, HiBiT tagged PARP14 (Homo sapiens, UniProt Q460N5).
T1 construct: engineered to contain a HiBiT tag on both alleles of the PARP14 gene; endogenous in cells; host or cells: Jurkat cells stably transfected with LgBiT (Promega), PARP14 locus edited by CRISPR/Cas9
As to the kind of experiment: HiBiT assay for the degradation of PARP14 (HiBiT tagged PARP14 in LgBiT expressing Jurkat cells, 2 or 24 hours). The format is cell-based. The following applies: Assay B (Example B): HiBiT tagged PARP14 degradation in LgBiT expressing Jurkat cells, read-out: DC50. On the procedure: Jurkat cells stably transfected with LgBiT (Promega) were engineered to contain a HiBiT tag on both alleles of the PARP14 gene (Genbank Accession Number: NM_017554) via CRISPR/Cas9 editing. The HiBiT tag is an 11 amino acid tag created by Promega that associates with LgBiT protein to form the NanoLuc® tag on the C-terminus of PARP14. Clones were isolated and confirmed for the HiBiT tag via Sanger sequencing.
Degradation of PARP14 protein was assessed by measuring the luminescence of the HiBiT tag associating with the LgBiT protein as a proxy for the PARP14 protein.
Jurkat cells were diluted to 250,000 cells per mL and then added to assay plate (Corning 3574) using a Multidrop (Thermo Fisher) to add 20 μL per well of the 384 well plate, resulting in 5,000 cells per well. 20 nL of a dose response curve diluted in DMSO of each test compound was added to the cell plate using a Mosquito (TTP Labtech) and the plate was incubated at 37° C. for 2 or 24 hours. Assay plate was brought to room temperature then 5 μL per well of Live Cell Substrate (Promega) was added to the plate. Luminescence was measured on an Envision (Perkin Elmer).
The average DMSO was calculated from 32 wells containing 0.1% DMSO only in columns 12 and 24 of the assay plate. The % of DMSO values were calculated as described below: […]
The % of DMSO values were plotted as a function of compound concentration and the following 4-parameter fit was applied to derive the DC50 values:
where top, bottom, and Hill Coefficient are allowed to float. Y is the % of DMSO and X is the compound concentration.
DC50 data for the Example compounds is provided below in Table 2 (“+” is ≤0.03 μM; “++” is ≥0.03 μM).
(With HiBiT, luminescence reflects the tagged protein that the partner subunit can reach.)
Turning to `Cn1nc(C2CCC(=O)NC2=O)c2ccc(N3CCC(N4CC(N5CCC(COc6cc(F)c7c(=O)[nH]c(CSC8CCOCC8)nc7c6)CC5)C4)CC3)cc21` (stereo not drawn) [Example 156, 3-(6-(4-(3-(4-(((5-fluoro-4-oxo-2-(((tetrahydro-2H-pyran-4-yl)thio)methyl)-3,4-dihydroquinazolin-7-yl)oxy)methyl)piperidin-1-yl)azetidin-1-yl)piperidin-1-yl)-1-methyl-1H-indazol-3-yl)piperidine-2,6-dione], the DC50 was under 30 nM.
The value for `O=C1CCC(Nc2ccc(N3CCC(N4CC(N5CCC(COc6ccc7c(=O)[nH]c(CSC8CCOCC8)nc7c6)CC5)C4)CC3)c(F)c2)C(=O)N1` (stereo not drawn) [Example 233, 3-((3-fluoro-4-(4-(3-(4-(((4-oxo-2-(((tetrahydro-2H-pyran-4-yl)thio)methyl)-3,4-dihydroquinazolin-7-yl)oxy)methyl)piperidin-1-yl)azetidin-1-yl)piperidin-1-yl)phenyl)amino)piperidine-2,6-dione] was under 30 nM.
The value for `O=C1CCC(N2C(=O)c3cccc4c(N5CCN(CCN6CCC(COc7cc(F)c8c(=O)[nH]c(CSC9CCOCC9)nc8c7)CC6)CC5)ccc2c34)C(=O)N1` (stereo not drawn) [Example 103, 3-(6-(4-(2-(4-(((5-fluoro-4-oxo-2-(((tetrahydro-2H-pyran-4-yl)thio)methyl)-3,4-dihydroquinazolin-7-yl)oxy)methyl)piperidin-1-yl)ethyl)piperazin-1-yl)-2-oxobenzo[cd]indol-1(2H)-yl)piperidine-2,6-dione] was under 30 nM; that for `COc1cc(N2CCC(N3CC(N4CCC(COc5cc(F)c6c(=O)[nH]c(CSC7CCOCC7)nc6c5)CC4)C3)CC2)c(F)cc1N1CCC(=O)NC1=O` [Example 166, 1-(5-fluoro-4-(4-(3-(4-(((5-fluoro-4-oxo-2-(((tetrahydro-2H-pyran-4-yl)thio)methyl)-3,4-dihydroquinazolin-7-yl)oxy)methyl)piperidin-1-yl)azetidin-1-yl)piperidin-1-yl)-2-methoxyphenyl)dihydropyrimidine-2,4(1H,3H)-dione] was under 30 nM.
For the compound `Cn1nc(N2CCC(=O)NC2=O)c2cc(F)c(N3CCN(CCN4CCC(COc5cc(F)c6c(=O)[nH]c(CSC7CCOCC7)nc6c5)CC4)CC3)cc21` [Example 212, 1-(5-fluoro-6-(4-(2-(4-(((5-fluoro-4-oxo-2-(((tetrahydro-2H-pyran-4-yl)thio)methyl)-3,4-dihydroquinazolin-7-yl)oxy)methyl)piperidin-1-yl)ethyl)piperazin-1-yl)-1-methyl-1H-indazol-3-yl)dihydropyrimidine-2,4(1H,3H)-dione], the DC50 was under 30 nM.
For `Cn1c(=O)n(C2CCC(=O)NC2=O)c2ccc(N3CCN(CCN4CCC(COc5cc(F)c6c(=O)[nH]c(CSC7CCOCC7)nc6c5)CC4)CC3)cc21` (stereo not drawn) [Example 91, 3-(5-(4-(2-(4-(((5-fluoro-4-oxo-2-(((tetrahydro-2H-pyran-4-yl)thio)methyl)-3,4-dihydroquinazolin-7-yl)oxy)methyl)piperidin-1-yl)ethyl)piperazin-1-yl)-3-methyl-2-oxo-2,3-dihydro-1H-benzo[d]imidazol-1-yl)piperidine-2,6-dione], the DC50 was under 30 nM.
As for `O=C1CCC(Nc2ccc(N3CCN(CCN4CCC(COc5cc(F)c6c(=O)[nH]c(COC7CCOCC7)nc6c5)CC4)CC3)c(F)c2)C(=O)N1` (single isomer, unassigned) [Example 99b, 3-((3-fluoro-4-(4-(2-(4-(((5-fluoro-4-oxo-2-(((tetrahydro-2H-pyran-4-yl)oxy)methyl)-3,4-dihydroquinazolin-7-yl)oxy)methyl)piperidin-1-yl)ethyl)piperazin-1-yl)phenyl)amino)piperidine-2,6-dione], the DC50 is under 30 nM.
In the case of `Cn1nc(N2CCC(=O)NC2=O)c2ccc(N3CCC(N4CCC(COc5cc(F)c6c(=O)[nH]c(CSC7CCOCC7)nc6c5)CC4)CC3)cc21` [Example 155, 1-(6-(4-(((5-fluoro-4-oxo-2-(((tetrahydro-2H-pyran-4-yl)thio)methyl)-3,4-dihydroquinazolin-7-yl)oxy)methyl)-[1,4′-bipiperidin]-1′-yl)-1-methyl-1H-indazol-3-yl)dihydropyrimidine-2,4(1H,3H)-dione] it was under 30 nM; in that of `O=C1CCC(Nc2ccc(N3CCN(CCN4CCC(COc5cc(F)c6c(=O)[nH]c(CSC7CCCCC7)nc6c5)CC4)CC3)c(F)c2)C(=O)N1` (stereo not drawn) [Example 194, 3-({4-[4-(2-{4-[({2-[(cyclohexylsulfanyl)methyl]-5-fluoro-4-oxo-3H-quinazolin-7-yl}oxy)methyl]piperidin-1-yl}ethyl)piperazin-1-yl]-3-fluorophenyl}amino)piperidine-2,6-dione], under 30 nM; in that of `O=C1CCC(Nc2ccc(N3CCC(N4CCC(C(=O)N5CCC(COc6cc(F)c7c(=O)[nH]c(CSC8CCOCC8)nc7c6)CC5)CC4)CC3)c(F)c2)C(=O)N1` (stereo not drawn) [Example 225, 3-((3-fluoro-4-(4-(4-(((5-fluoro-4-oxo-2-(((tetrahydro-2H-pyran-4-yl)thio)methyl)-3,4-dihydroquinazolin-7-yl)oxy)methyl)piperidine-1-carbonyl)-[1,4′-bipiperidin]-1′-yl)phenyl)amino)piperidine-2,6-dione], under 30 nM.
In the case of `O=C1CCC(Nc2ccc(N3CCC(N4CC(N5CCC(COc6cc(F)c7c(=O)[nH]c(CSC8CCOCC8)nc7c6)CC5)C4)CC3)c(C(F)(F)F)c2)C(=O)N1` (stereo not drawn) [Example 230, 3-((4-(4-(3-(4-(((5-fluoro-4-oxo-2-(((tetrahydro-2H-pyran-4-yl)thio)methyl)-3,4-dihydroquinazolin-7-yl)oxy)methyl)piperidin-1-yl)azetidin-1-yl)piperidin-1-yl)-3-(trifluoromethyl)phenyl)amino)piperidine-2,6-dione] it was under 30 nM; in that of `O=C1CCC(Nc2ccc(F)c(N3CCN(CCN4CCC(COc5cc(F)c6c(=O)[nH]c(CSC7CCOCC7)nc6c5)CC4)CC3)c2)C(=O)N1` (stereo not drawn) [Example 104, 3-((4-fluoro-3-(4-(2-(4-(((5-fluoro-4-oxo-2-(((tetrahydro-2H-pyran-4-yl)thio)methyl)-3,4-dihydroquinazolin-7-yl)oxy)methyl)piperidin-1-yl)ethyl)piperazin-1-yl)phenyl)amino)piperidine-2,6-dione], under 30 nM.
For `O=C1CCN(c2cncc3c(N4CCN(CCN5CCC(COc6cc(F)c7c(=O)[nH]c(CSC8CCOCC8)nc7c6)CC5)CC4)cccc23)C(=O)N1` [Example 210, 1-(8-(4-(2-(4-(((5-fluoro-4-oxo-2-(((tetrahydro-2H-pyran-4-yl)thio)methyl)-3,4-dihydroquinazolin-7-yl)oxy)methyl)piperidin-1-yl)ethyl)piperazin-1-yl)isoquinolin-4-yl)dihydropyrimidine-2,4(1H,3H)-dione], the DC50 is under 30 nM.
In the case of `O=C1CCN(c2ccc(C3CCN(CCN4CCC(COc5cc(F)c6c(=O)[nH]c(CSC7CCOCC7)nc6c5)CC4)CC3)c(F)c2)C(=O)N1` [Example 208, 1-(3-fluoro-4-(1-(2-(4-(((5-fluoro-4-oxo-2-(((tetrahydro-2H-pyran-4-yl)thio)methyl)-3,4-dihydroquinazolin-7-yl)oxy)methyl)piperidin-1-yl)ethyl)piperidin-4-yl)phenyl)dihydropyrimidine-2,4(1H,3H)-dione] it was under 30 nM; in that of `O=C1CCC(Nc2ccc(-c3ccc(CCN4CCC(COc5cc(F)c6c(=O)[nH]c(CSC7CCOCC7)nc6c5)CC4)nc3)cc2)C(=O)N1` (stereo not drawn) [Example 133], under 30 nM.
The value for `Cn1nc(N2CCC(=O)NC2=O)c2cc(F)c(N3CCC(N4CCC(COc5cc(F)c6c(=O)[nH]c(CSC7CCOCC7)nc6c5)CC4)CC3)cc21` [Example 163, 1-(5-fluoro-6-(4-(((5-fluoro-4-oxo-2-(((tetrahydro-2H-pyran-4-yl)thio)methyl)-3,4-dihydroquinazolin-7-yl)oxy)methyl)-[1,4′-bipiperidin]-1′-yl)-1-methyl-1H-indazol-3-yl)dihydropyrimidine-2,4(1H,3H)-dione] was under 30 nM; that for `Cn1nc(N2CCC(=O)NC2=O)c2cc(F)c(C3CCN(CCN4CCC(COc5cc(F)c6c(=O)[nH]c(CSC7CCOCC7)nc6c5)CC4)CC3)cc21` [Example 207, 1-(5-fluoro-6-(1-(2-(4-(((5-fluoro-4-oxo-2-(((tetrahydro-2H-pyran-4-yl)thio)methyl)-3,4-dihydroquinazolin-7-yl)oxy)methyl)piperidin-1-yl)ethyl)piperidin-4-yl)-1-methyl-1H-indazol-3-yl)dihydropyrimidine-2,4(1H,3H)-dione formate] was under 30 nM.
The value for `O=C1CCC(Nc2cc(F)c(N3CCN(CCN4CCC(COc5cc(F)c6c(=O)[nH]c(CSC7CCOCC7)nc6c5)CC4)CC3)c(F)c2)C(=O)N1` (stereo not drawn) [Example 98, 3-((3,5-difluoro-4-(4-(2-(4-(((5-fluoro-4-oxo-2-(((tetrahydro-2H-pyran-4-yl)thio)methyl)-3,4-dihydroquinazolin-7-yl)oxy)methyl)piperidin-1-yl)ethyl)piperazin-1-yl)phenyl)amino)piperidine-2,6-dione formate] was under 30 nM.

By DC50 is commonly meant the midpoint of the concentration-degradation curve.
